Data taken from patent publication US8663928B2, “Method for the detection of post-translational modifications” (CIS BIO International, priority 2006, dated 2014).

Key:
Cam kinase II = target: T1, Cam kinase II (Homo sapiens, UniProt Q13557); assay: TR-FRET measurement of the phosphorylation of a generic protein substrate by Cam kinase II in co-transfected HEK293 cells; assay type: cell-based; conditions: FIG. 2; ionomycin 1 μM, 5 min; HEK293 co-transfected with substrate plasmid and CamKII delta
T1 construct: expressed in transfected cells; host or cells: HEK293
T1 sequence (Q13557 whole entry): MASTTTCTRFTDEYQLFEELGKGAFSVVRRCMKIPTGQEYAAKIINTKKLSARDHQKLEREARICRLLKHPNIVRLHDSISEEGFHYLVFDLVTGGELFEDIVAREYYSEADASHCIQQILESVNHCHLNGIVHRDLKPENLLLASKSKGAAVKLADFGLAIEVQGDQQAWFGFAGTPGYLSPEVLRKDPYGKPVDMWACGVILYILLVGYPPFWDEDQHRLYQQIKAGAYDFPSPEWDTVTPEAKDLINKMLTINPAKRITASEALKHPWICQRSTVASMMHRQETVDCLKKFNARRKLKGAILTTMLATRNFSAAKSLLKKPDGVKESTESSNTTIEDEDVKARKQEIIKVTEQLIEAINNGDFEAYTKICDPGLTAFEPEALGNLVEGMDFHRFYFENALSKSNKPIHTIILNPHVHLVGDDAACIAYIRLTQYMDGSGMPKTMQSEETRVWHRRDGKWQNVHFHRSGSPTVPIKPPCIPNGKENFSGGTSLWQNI
Description: 8000 cells HEK293 are either transfected with increasing quantities of plasmid coding for the substrate alone (Identical to Example 1), or co-transfected with the same quantities of plasmid coding for the substrate and 25 ng of CamKII 6-pcDNA 3.1 (plasmid coding for Cam kinase II). The transfection is carried out as described in Example 1.
The cells are then cultured for 48 hours at 37° C. in DMEM medium, comprising 10% fcetal calf serum and 1% antibiotic and antifungal, then for 16 hours in the same medium without serum.
The cells are stimulated for 5 min in the presence of ionomycin 1 μM (Sigma), and lysed as described above.
The phosphorylation of the protein substrate is detected as described in Example 1.

Akt1 = target: T2, Akt1 (Homo sapiens, UniProt P31749); assay: TR-FRET measurement of the phosphorylation of a generic protein substrate by Akt1 in co-transfected HEK293 cells, with total protein substrate; assay type: cell-based
T2 construct: expressed in transfected cells; host or cells: HEK293
T2 sequence (P31749 whole entry, species assumed): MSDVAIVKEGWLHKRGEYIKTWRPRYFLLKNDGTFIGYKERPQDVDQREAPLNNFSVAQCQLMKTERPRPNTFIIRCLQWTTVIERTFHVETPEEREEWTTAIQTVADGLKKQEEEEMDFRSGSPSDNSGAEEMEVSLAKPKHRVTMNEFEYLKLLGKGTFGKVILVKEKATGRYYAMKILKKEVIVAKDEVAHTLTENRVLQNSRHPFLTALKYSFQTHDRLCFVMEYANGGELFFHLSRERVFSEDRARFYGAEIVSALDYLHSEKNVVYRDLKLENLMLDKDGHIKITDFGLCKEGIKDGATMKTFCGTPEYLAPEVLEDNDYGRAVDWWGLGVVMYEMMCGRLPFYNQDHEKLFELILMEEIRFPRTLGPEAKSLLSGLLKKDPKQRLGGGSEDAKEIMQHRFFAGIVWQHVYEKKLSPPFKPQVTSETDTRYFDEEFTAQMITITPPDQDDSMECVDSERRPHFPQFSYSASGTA
Description: 8000 HEK293 cells (ATCC) are either transfected with increasing quantities of plasmid coding for the substrate alone, or co-transfected with the same quantities of plasmid coding for the substrate and 25 ng of Akt1-pcDNA 3.1 (Invitrogen Corp. Cat No. V790-20) The co-transfection is carried out in the presence of Lipofectamine 2000 (Invitrogen corp. Cat No. 11668-019) and OPTI-MEM medium (Gibco Cat No. 31985).
The cells are then cultured for 48 hours at 37° C. in 25 μl of DMEM medium (Gibco Cat No. 11965-092), to which 10% FCS (Hyclone Cat No. SV30014-03) and 1% antibiotic and antifungal (Gibco Cat No. 15240-062) are added in 384-well plates (Proxiplate 384, Perkin-Elmer Cat No. 6006280).
The cells are lysed in 50 mM Hepes buffer, pH7, containing 0.1% BSA, 20 mM EDTA, 0.8 M potassium fluoride and 2% TRITON X-100® (octylphenol ethyelene oxide condensate)). This same buffer contains 1.8 ng of phosphospecific antibodies (STK antibody, Upstate Cat No. 35-002) conjugated with the donor (europium cryptate) and 40 ng of anti-FLAG conjugated with the acceptor (cross-linked allophycocyanin, XL 665, CIS bio international Cat No. 61 FG2XLA).
The plate is incubated for 1 hour at ambient temperature before time-resolved reading.
The FRET signals are measured on an Acquest 384 fluorimeter (Molecular Device) in TR-FRET mode at 620 nm (emission wavelength of rare earth cryptate) and 665 nm (emission wavelength of allophycocyanin) after excitation by a flash lamp with a bandwidth comprised between 330 and 380 nm. The ratio between the fluorescence emitted at 665 nm (fluorescence of the acceptor) and the fluorescence emitted at 620 nm (fluorescence of the donor) (Ratio 665/620) represents the FRET occurring between the donor (europium cryptate) and the acceptor (Allophycocyanin). […]
The cells are co-transfected and cultured as described in Example 1. […] The cells are then lysed and the phosphorylated protein substrate detected as described in Example 1.
In parallel, in a second well, cells are treated in identical manner. After lysis, the total quantity of protein substrate is measured using an anti-c-myc antibody coupled with europium cryptate (2.9 ng/well) (CIS bio international Cat No. 61MYCKLA) and an anti-FLAG antibody coupled with allophycocyanin (40 ng/well).
The cells are co-transfected with a plasmid coding for the protein substrate labelled by the c-myc and flag tags and with a plasmid coding for Akt1, as described in Example 1. […] In this case the lysate is first placed in the presence of a phosphospecific antibody, coupled with tris-bipyridine europium cryptate (CIS bio international, formula below), and an anti-FLAG antibody coupled with allophycocyanin (in the same quantities as those described in Example 1). […]

Structure (SMILES)	signal of phosphorylated protein substrate after stimulation (Cam kinase II)	signal corresponding to the phosphorylated protein substrate (Akt1; FIG. 3, HEK293 co-transfected with substrate plasmid and Akt1, 1 hour incubation with increasing concentrations, separate wells)	signal corresponding to the total protein substrate (Akt1; FIG. 3, anti-c-myc cryptate/anti-FLAG allophycocyanin, second well, increasing concentrations)	signal corresponding to the phosphorylated protein substrate (not standardized) (Akt1; FIG. 4, 0.2 nM, 20 nM, 2 μM, separate wells or single well with FRET suppressing agent)	ratio of phosphorylated protein substrate: total protein substrate (Akt1; FIG. 6, signal standardized by total protein substrate signal, 0.2 nM, 20 nM, 2 μM)
C[C@H](CCC(=O)O)C[C@H](C)C[C@H](C)C(=O)/C=C(\O)[C@H](C)C[C@H](C)C/C=C/[C@@H](C)[C@@H](O)[C@@H](C)[C@@H](O)C[C@@H]1CC[C@@](C)([C@H]2CC[C@@](C)([C@@H](C)O)O2)O1 [ionomycin]	much greater than in its absence				
CN[C@@H]1C[C@H]2O[C@@](C)([C@@H]1OC)n1c3ccccc3c3c4c(c5c6ccccc6n2c5c31)C(=O)NC4 [staurosporine]		reduces with increasing concentrations	remains constant whatever the dose of inhibitor	sensitive to staurosporine only in the case where it is added to the measurement medium at high concentrations (2 μM)	inhibition of the phosphorylation of the protein substrate
